# Test results reported in patent US8268961B2, “Antibacterial peptides and analogues thereof” (Universita Degli Studi di Siena, priority 2004, dated 2012).
# Where two headings read alike, the source gives them in different places. Positions of bridges follow the written chain, without caps; N, C: chain ends. Chains are numbered I, II in the order given. No end group written: not given here.
# Legend:
# [1] = tested on: Chryseobacterium meningosepticum CCUG4310; assay: MIC, standard microdilution assay; assay type: cell-based; details: Chryseobacterium meningosepticum CCUG4310, reference strain
# Description: (§1) MIC is defined as the lowest concentration, in an antibiotic dilution range, that inhibits visible bacterial growth. The importance of MIC sensitivity test is based on the principle that in vitro sensitivity provides a predictive indication of the in vivo efficacy of the antibiotic therapy. Values are expressed as molar concentration and compared to MIC values obtained with commercially available antibiotics such as amikacin, ceftriaxone and levofloxacin (Table 3).
# (§2) Reference strains (Escherichia coli ATCC 25922, Pseudomonas aeruginosa ATCC 27853, Staphylococus aureus ATCC 25923 and Chryseobacterium meningosepticum CCUG 4310) and several recent clinical isolates (including multidrug-resistant ones) of various species (Table 2) were used for conventional susceptibility testing experiments. Minimum Inhibitory Concentration (MIC) was determined by a standard microdilution assay as recommended by the National Commitee for Clinical Laboratory Standards (NCCLS) using cation-supplemented Mueller-Hinton (MH) broth (Oxoid Ltd. Basingstoke, UK) and a bacterial inoculum of 5×10^4 CFU per well, in a final volume of 100 μl. Results were recorded by visual inspection after 24 h of incubation at 37° C.
# [2] = tested on: Morganella morganii W03VA1342; assay: MIC, standard microdilution assay; assay type: cell-based; details: Morganella morganii W03VA1342, FQR ESCR (ESBL/CTX-M-1)
# Description: as §1, §2
# [3] = tested on: Proteus mirabilis W99FI0089; assay: MIC, standard microdilution assay; assay type: cell-based; details: Proteus mirabilis W99FI0089, FQR
# Description: as §1, §2
# [4] = tested on: Providencia stuartii W03FI0001; assay: MIC, standard microdilution assay; assay type: cell-based; details: Providencia stuartii W03FI0001, AGR ESCR (ESBL/PER-1)
# Description: as §1, §2
# [5] = tested on: Serratia marcescens W99FI0111; assay: MIC, standard microdilution assay; assay type: cell-based; details: Serratia marcescens W99FI0111, FQR AGR ESCR (ESBL/SHV-5)
# Description: as §1, §2
# [6] = tested on: Stenotrophomonas maltophilia PT4/99; assay: MIC, standard microdilution assay; assay type: cell-based; details: Stenotrophomonas maltophilia PT4/99, wild-type profile
# Description: as §1, §2
# [7] = tested on: Staphylococus aureus MIU-68A; assay type: cell-based, Staphylococcus aureus
# Description: as §1, §2
# E. coli ATCC 25922 = assay: Minimal bactericidal concentration (MBC); assay type: cell-based
# Method: as §2
# (§3) The MBC was determined as recommended by the National Committee for Clinical Laboratory Standards (NCCLS) on strains of E. coli ATCC 25922 and P. aeruginosa ATCC 27853.
# P. aeruginosa ATCC 27853 = assay: Minimal bactericidal concentration (MBC); assay type: cell-based
# Method: as §2, §3
# [8] = tested on: murine macrophage cells J774 A.1; assay: Cytotoxicity test by MTT; assay type: cell-based, mouse
# Method: The cytotoxicity of antibacterial MAP peptides was evaluated on different eukaryotic cell lines by a colorimetric assay (MTT). This assay measures the cells' ability to convert a soluble tetrazolium salt into an insoluble precipitate: formazan. The cytotoxicity of M1 was evaluated on murine macrophagic cells (J774 A.1), murine myeloma cells (SPO) and Chinese hamster ovary epithelium cells (CHO K1). As shown FIG. 4, even at high concentrations (1 mg/ml) M1 cytotoxicity on CHO K1 cells and on SPO cells is low (percent survival is 80-90%).
# For cytotoxicity tests, different cell lines were used: murine myeloma cells SPO, hamster ovary epithelium cells CHO K 1, murine macrophage cells J774 A.1 and human keratinocytes HaCaT. The cells were plated in medium in RPMI 1640 (SPO and CHO K 1) and DMEM (J774 A.1 and HaCaT) with antibiotics and bovine foetal serum at 10%, in 96-well plates at the concentration of 6×10^4 (SPO, CHO K1 and J774 A.1) and 3×10^4 (HaCaT). Peptides, previously filtered with a 0.2 μm filter disk (Whatman), were added at various concentrations to the different cell lines and left in incubation over night at 37° C. Cell viability was determined adding the MTT tetrazolium salt at the concentration of 0.5 mg/ml and incubating for 90 min. The cells were solubilised with a solution at pH 4.5 containing SDS 10% and dimethylformamide 45% and read at the dual wavelength of 595/650 nm with a plate reader.
# [9] = Stability to plasmatic protease (HPLC); assay type: in vitro ADME, human
# Summary of the method: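 Linear and MAP peptides (10 mM in H2O) incubated with human plasma and serum at 37° C. for 2 and 24 hours. Reaction stopped with methanol; supernatant analysed by reverse-phase C18 HPLC (20-95% TFA/methanol gradient, 30 min) for undigested peptide.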
# [10] = tested on: E. coli plasmid vector pCEP4 DNA; assay: DNA binding assay (gel retardation)
# Method: In an attempt to clarify the molecular mechanism of action, the authors examined the binding properties on DNA exerted by M6 dendrimeric peptide and magainin 2, an antimicrobial peptide which has a pore-forming activity on the cell membrane. The DNA binding abilities of M6 and magainin 2 were examined by analyzing the electrophoretic mobility of DNA bands at the various weight ratios of peptides to DNA on a 1% (w/v) agarose gel.
# Gel-retardation experiments were performed by mixing 200 ng of the E. coli plasmid vector pCEP4 (Invitrogen) with increasing amounts of M6 peptide in 20 μl of binding buffer (5% glycerol, 10 mM Tris-HCl (pH 8.0), 1 mM EDTA, 1 mM DTT, 20 mM KCl and 50 μg/ml BSA). The reaction mixtures were incubated at room temperature for 1 h. Subsequently, 4 μl of native loading buffer was added (40% saccarose, 0.25% bromophenol blue) and an aliquot of 12 μl was applied to a 1% agarose gel electrophoresis in 1 mM Tris borate-EDTA buffer.
substance,measurement,setting,value
"I: QKKIRVRLSAKKA-OH / II: QKKIRVRLSAK / III: QKKIRVRLSA / IV: QKKIRVRLSA (amide I:11-IV:C, I:12-II:C, II:11-III:C) [M6, QKKIRVRLSA]",MIC (Molarity),[1],>49 µM
same,MIC (Molarity),[2],>49 µM
same,MIC (Molarity),[3],>49 µM
same,MIC (Molarity),[4],>49 µM
same,MIC (Molarity),[5],>49 µM
same,MIC (Molarity),[6],>49 µM
same,MIC (Molarity),[7],49 µM
same,MBC (minimal concentration able to kill 99.9% of the inoculum) compared with MIC,E. coli ATCC 25922,equal to the calculated values of MIC
same,MBC (minimal concentration able to kill 99.9% of the inoculum) compared with MIC,E. coli ATCC 25922; listed as QKKIRVRLSA,equal to the corresponding MIC values
same,MBC (minimal concentration able to kill 99.9% of the inoculum) compared with MIC,P. aeruginosa ATCC 27853,equal to the calculated values of MIC
same,MBC (minimal concentration able to kill 99.9% of the inoculum) compared with MIC,P. aeruginosa ATCC 27853; listed as QKKIRVRLSA,equal to the corresponding MIC values
same,Concentration at and over which a drop in cell viability was evident (MTT),[8],≥ 125 µg/mL
same,Vitality of J774 A.1 cells as the concentration of MAP peptides increases (MTT),[8],decreases
same,Resistance to plasmatic protease: Plasma 2 h,[9],+
same,Resistance to plasmatic protease: Plasma 24 h,[9],+
same,Weight ratio of peptide to DNA at which migration of DNA is inhibited,"[10]; 200 ng pCEP4, 1% agarose gel, 1 h room temperature",> 0.2
same,DNA binding tightness relative to magainin 2,[10]; from gel retardation weight ratios,over 25 times
